The results in this text go back to patent US20080114007A1 (priority 2006, published 2008).

Chain of CSF-1R (P07333 20-972): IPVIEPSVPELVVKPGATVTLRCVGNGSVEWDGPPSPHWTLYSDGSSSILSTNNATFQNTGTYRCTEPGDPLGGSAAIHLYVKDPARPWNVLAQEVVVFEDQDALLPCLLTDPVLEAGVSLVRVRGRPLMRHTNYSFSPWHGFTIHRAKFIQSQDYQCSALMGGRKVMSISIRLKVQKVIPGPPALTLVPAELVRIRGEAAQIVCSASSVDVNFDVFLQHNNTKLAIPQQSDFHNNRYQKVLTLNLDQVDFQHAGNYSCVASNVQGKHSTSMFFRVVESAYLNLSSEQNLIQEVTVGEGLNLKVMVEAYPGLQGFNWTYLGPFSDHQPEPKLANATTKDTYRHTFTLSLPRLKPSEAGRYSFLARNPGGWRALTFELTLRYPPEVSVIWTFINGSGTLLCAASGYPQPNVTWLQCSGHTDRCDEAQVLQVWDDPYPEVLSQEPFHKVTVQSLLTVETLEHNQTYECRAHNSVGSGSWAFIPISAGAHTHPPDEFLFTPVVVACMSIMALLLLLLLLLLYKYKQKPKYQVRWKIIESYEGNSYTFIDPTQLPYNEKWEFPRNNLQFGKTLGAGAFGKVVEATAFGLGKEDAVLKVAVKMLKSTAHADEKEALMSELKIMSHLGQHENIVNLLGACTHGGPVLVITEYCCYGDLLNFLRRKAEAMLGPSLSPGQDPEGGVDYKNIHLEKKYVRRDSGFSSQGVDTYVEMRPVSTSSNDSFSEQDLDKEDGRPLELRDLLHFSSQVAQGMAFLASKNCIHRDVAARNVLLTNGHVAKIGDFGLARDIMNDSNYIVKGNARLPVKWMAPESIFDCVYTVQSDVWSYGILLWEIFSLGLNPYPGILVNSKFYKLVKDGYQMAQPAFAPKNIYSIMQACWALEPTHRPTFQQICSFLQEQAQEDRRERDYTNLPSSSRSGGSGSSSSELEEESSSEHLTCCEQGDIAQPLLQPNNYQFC

The target of one assay is CSF-1R (Homo sapiens, UniProt P07333). The experiment in a line: Peptide (non-phosphorylated) assay, fluorescence polarization competition immunoassay. Type of assay: biochemical. The conditions noted are these: 0.7 nM CSF-1R, 308 μM SYEGNSYTFIDPTQ peptide, 1 mM ATP, 80 min; mean of at least three determinations; read-out: c-fms Peptide IC50. How it is done:
The kinase reaction was initiated by adding 1 μL of 10 mM ATP in assay buffer. […] Positive and negative control wells were included on each plate, where 4% DMSO in assay buffer was substituted for the compound; in addition, positive control wells received 1.2 μL of 50 mM EDTA before the start of the reaction.
The plates were covered and incubated at room temperature for 80 min. Reactions were stopped by addition of 1.2 μL of 50 mM EDTA. Each well then received 10 μL of a 1:1:3 mixture of 10× anti-phosphotyrosine antibody, 10×PTK green tracer, and FP dilution buffer, respectively (Cat. # P2837, Invitrogen, Carlsbad, Calif.). The plates were covered, incubated for 30 min at room temperature, and the fluorescence polarization was read on an Analyst plate reader (Molecular Devices).
As a reminder, the IC50 is the concentration that gives 50% inhibition. For the molecule `C#Cc1ccc(-n2cc(C(=O)NOC)c(=O)c3cnc(Nc4ccc(CCN5CCN(C)CC5)cc4)nc32)cc1` [Cpd 31, 8-(4-ethynyl-phenyl)-2-{4-[2-(4-methyl-piperazin-1-yl)-ethyl]-phenylamino}-5-oxo-5,8-dihydro-pyrido[2,3-d]pyrimidine-6-carboxylic acid methoxy-amide], the concentration for half-maximal inhibition (IC50) was determined as 2.6 nM.

On to `CCc1ccc(-n2cc(C(=O)NOC)c(=O)c3cnc(Nc4cccc(NC(=O)CN(C)C)c4)nc32)cc1` [Cpd 228, 2-[3-(2-dimethylamino-acetylamino)-phenylamino]-8-(4-ethyl-phenyl)-5-oxo-5,8-dihydro-pyrido[2,3-d]pyrimidine-6-carboxylic acid methoxy-amide], for which the concentration for half-maximal inhibition (IC50) came to 0.68 nM.

As to `CCc1ccc(-n2cc(C(=O)NOC)c(=O)c3cnc(Nc4ccc(C5CCN(S(N)(=O)=O)CC5)cc4)nc32)cc1` [Cpd 179, 8-(4-ethyl-phenyl)-5-oxo-2-[4-(1-sulfamoyl-piperidin-4-yl)-phenylamino]-5,8-dihydro-pyrido[2,3-d]pyrimidine-6-carboxylic acid methoxy-amide], the concentration for half-maximal inhibition (IC50) was found to be 1.8 nM.

For the molecule `CONC(=O)c1cn(-c2ccc3c(c2)CCC3)c2nc(Nc3ccc(CCN4CCNCC4)cc3)ncc2c1=O` [Cpd 144, 8-indan-5-yl-5-oxo-2-[4-(2-piperazin-1-yl-ethyl)-phenylamino]-5,8-dihydro-pyrido[2,3-d]pyrimidine-6-carboxylic acid methoxy-amide], the 50% inhibitory concentration (IC50) worked out at 0.4 nM.

As to `CCONC(=O)c1cn(C2CCCC2)c2nc(Nc3ccc(CCN4CCCC4)cc3)ncc2c1=O` [Cpd 40, 8-cyclopentyl-5-oxo-2-[4-(2-pyrrolidin-1-yl-ethyl)-phenylamino]-5,8-dihydro-pyrido[2,3-d]pyrimidine-6-carboxylic acid ethoxy-amide], the IC50 came out at 6.8 nM.

On to `CCc1ccc(-n2cc(C(=O)NOC(C)C)c(=O)c3cnc(Nc4ccc(C5CCN(S(C)(=O)=O)CC5)cc4)nc32)cc1` [Cpd 60, 8-(4-ethyl-phenyl)-2-[4-(1-methanesulfonyl-piperidin-4-yl)-phenylamino]-5-oxo-5,8-dihydro-pyrido[2,3-d]pyrimidine-6-carboxylic acid isopropoxy-amide], for which the 50% inhibitory concentration (IC50) is 7 nM.

For `CONC(=O)c1cn(-c2ccc3c(c2)CCC3)c2nc(Nc3ccc(CCN4CCC(F)(F)C4)cc3)ncc2c1=O` [Cpd 241, 2-{4-[2-(3,3-difluoro-pyrrolidin-1-yl)-ethyl]-phenylamino}-8-indan-5-yl-5-oxo-5,8-dihydro-pyrido[2,3-d]pyrimidine-6-carboxylic acid methoxy-amide], the half-maximal inhibitory concentration (IC50) came out at 1.7 nM.

Take `CONC(=O)c1cn(-c2ccc3c(c2)CCC3)c2nc(Nc3cccc(N4CCN(C)CC4)c3)ncc2c1=O` [Cpd 324, 8-indan-5-yl-2-[3-(4-methyl-piperazin-1-yl)-phenylamino]-5-oxo-5,8-dihydro-pyrido[2,3-d]pyrimidine-6-carboxylic acid methoxy-amide]: the 50% inhibitory concentration (IC50) was found to be 0.5 nM.

In the case of `CONC(=O)c1cn(C2CCCCC2)c2nc(Nc3ccc(C4CCN(C)CC4)cc3)ncc2c1=O` [Cpd 140, 8-cyclohexyl-2-[4-(1-methyl-piperidin-4-yl)-phenylamino]-5-oxo-5,8-dihydro-pyrido[2,3-d]pyrimidine-6-carboxylic acid methoxy-amide], the half-maximal inhibitory concentration (IC50) amounted to 4.8 nM.

With `CONC(=O)c1cn(C2CCCCC2)c2nc(Nc3ccc(CCN4CCN(C)CC4)cc3)ncc2c1=O` [Cpd 18, 8-cyclohexyl-2-{4-[2-(4-methyl-piperazin-1-yl)-ethyl]-phenylamino}-5-oxo-5,8-dihydro-pyrido[2,3-d]pyrimidine-6-carboxylic acid methoxy-amide], the IC50 worked out at 0.3 nM.

With `CONC(=O)c1cn(-c2ccc3c(c2)CCC3)c2nc(Nc3ccc(CCS(C)(=O)=O)cc3)ncc2c1=O` [Cpd 71, 8-indan-5-yl-2-[4-(2-methanesulfonyl-ethyl)-phenylamino]-5-oxo-5,8-dihydro-pyrido[2,3-d]pyrimidine-6-carboxylic acid methoxy-amide], the 50% inhibitory concentration (IC50) is 0.64 nM.

As for `CONC(=O)c1cn(-c2ccc3c(c2)CCC3)c2nc(Nc3ccc(C4CCN(CC(=O)O)CC4)cc3)ncc2c1=O` [Cpd 85, {4-[4-(8-indan-5-yl-6-methoxycarbamoyl-5-oxo-5,8-dihydro-pyrido[2,3-d]pyrimidin-2-ylamino)-phenyl]-piperidin-1-yl}-acetic acid], the 50% inhibitory concentration (IC50) amounted to 2.2 nM.

Consider `CONC(=O)c1cn(-c2ccc3c(c2)CCC3)c2nc(Nc3ccc(CN4CCN(C)CC4)cc3)ncc2c1=O` [Cpd 128, 8-indan-5-yl-2-[4-(4-methyl-piperazin-1-ylmethyl)-phenylamino]-5-oxo-5,8-dihydro-pyrido[2,3-d]pyrimidine-6-carboxylic acid methoxy-amide], for which the 50% inhibitory concentration (IC50) was 1.1 nM.

In the case of `NC(=O)c1cn(-c2ccc3c(c2)CCC3)c2nc(Nc3cccc(N4CCCC4)c3)ncc2c1=O` [Cpd 125, 8-indan-5-yl-5-oxo-2-(3-pyrrolidin-1-yl-phenylamino)-5,8-dihydro-pyrido[2,3-d]pyrimidine-6-carboxylic acid amide], the half-inhibitory concentration (IC50) turned out to be 5.7 nM.

As for `CONC(=O)c1cn(-c2ccc3c(c2)CCC3)c2nc(Nc3cccc(N4CCNCC4)c3)ncc2c1=O` [Cpd 2, 8-indan-5-yl-5-oxo-2-(3-piperazin-1-yl-phenylamino)-5,8-dihydro-pyrido[2,3-d]pyrimidine-6-carboxylic acid methoxy-amide], the half-inhibitory concentration (IC50) was 0.56 nM.

With `CONC(=O)c1cn(C2CCCCC2)c2nc(Nc3ccc(N4CCCC4)cc3)ncc2c1=O` [Cpd 10, 8-cyclohexyl-5-oxo-2-(4-pyrrolidin-1-yl-phenylamino)-5,8-dihydro-pyrido[2,3-d]pyrimidine-6-carboxylic acid methoxy-amide], the IC50 was 2.1 nM.

Turning to `COCCOc1ccc(Nc2ncc3c(=O)c(C(=O)NOC)cn(-c4ccc5c(c4)CCC5)c3n2)cc1` [Cpd 258, 8-indan-5-yl-2-[4-(2-methoxy-ethoxy)-phenylamino]-5-oxo-5,8-dihydro-pyrido[2,3-d]pyrimidine-6-carboxylic acid methoxy-amide], the 50% inhibitory concentration (IC50) amounted to 0.94 nM.

`CC(C)ONC(=O)c1cn(-c2ccc3c(c2)CCC3)c2nc(Nc3ccc(CCN4CCN(C)CC4)cc3)ncc2c1=O` [Cpd 63, 8-indan-5-yl-2-{4-[2-(4-methyl-piperazin-1-yl)-ethyl]-phenylamino}-5-oxo-5,8-dihydro-pyrido[2,3-d]pyrimidine-6-carboxylic acid isopropoxy-amide]: the IC50 came to 0.52 nM.

Take `CONC(=O)c1cn(-c2ccc3c(c2)CCC3)c2nc(Nc3ccc(C4CCN(C)CC4(F)F)cc3)ncc2c1=O` (centres unmarked) [Cpd 237, 2-[4-(3,3-difluoro-1-methyl-piperidin-4-yl)-phenylamino]-8-indan-5-yl-5-oxo-5,8-dihydro-pyrido[2,3-d]pyrimidine-6-carboxylic acid methoxy-amide]: the IC50 came out at 0.71 nM.

The assay is the same for the next values; noted with them: c-fms Peptide IC50, 0.7 nM CSF-1R, 308 μM SYEGNSYTFIDPTQ peptide, 1 mM ATP, 80 min; mean of at least three determinations.
As for `CONC(=O)c1cn(-c2ccc3c(c2)CCC3)c2nc(Nc3ccc(CCN4CCOCC4)cc3)ncc2c1=O` [Cpd 80, 8-indan-5-yl-2-[4-(2-morpholin-4-yl-ethyl)-phenylamino]-5-oxo-5,8-dihydro-pyrido[2,3-d]pyrimidine-6-carboxylic acid methoxy-amide], the IC50 stood at 1.3 nM.
